Results on 4 compounds are retold here after patent publication EP0385850A2, “Benzimidazole and azabenzimidazole derivatives, process for their preparation, synthesis intermediates, pharmaceutical compositions containing them, useful for the treatment of cardiovascular diseases and duodenal ulcers” (LABORATOIRES UPSA, priority 1989, dated 1990).

Each structure is given as a SMILES string.

Test [1] has as its system rats mâles de souche OFA. Description: anti-ulcer activity against a necrotising agent (e.g. absolute ethanol), oral, rat. Type of test: in vivo. The following applies: v.o., 30 min before necrotising agent, stomachs removed 1 h after, dose reducing lesions by 50 %, determined graphically, read-out: activité anti-ulcère vis à vis d'un agent nécrosant DA 50 Mg/Kg v.o. The procedure:
(§1) Des lots de 10 à 30 rats mâles de souche OFA (Iffa Credo), pesant 160-180 g, sont mis à la diète hydrique 24 h avant l'administration orale du produit étudié. Trente minutes plus tard, un agent ulcérigène médicamenteux ou un agent nécrosant (exemple : éthanol absolu) est administré par voie orale à des doses qui entraînent chez les animaux témoins une ulcération gastrique maximale. Les estomacs sont prélevés, selon le test, respectivement 6 et 1 h après le dernier traitement. Les lésions gastriques sont alors évaluées macroscopiquement (cotation et mesure de l'ampleur des ulcères).
(§2) Ils sont exprimés sous forme de dose active 50 déterminée graphiquement. Cette dose exprime la dose nécessaire pour réduire de 50 % les lésions ulcéreuses observées chez les animaux témoins.

Test [2] relates to rats mâles de souche OFA. Description: anti-ulcer activity against a non-steroidal anti-inflammatory (ulcerogenic drug), oral, rat. Type of test: in vivo. The following applies: v.o., 30 min before ulcerogenic drug, stomachs removed 6 h after, dose reducing lesions by 50 %, determined graphically, read-out: activité anti-ulcère vis à vis d'un anti-inflammatoire non stéroïdien DA 50 Mg/Kg v.o. The procedure:
as §1, §2

As to `C=CCSc1nc2ccc(-n3ccnc3)cc2[nH]1` [Exemple 129, (imidazolyl-1)-5 (allylthio)-2 benzimidazole], in the test with rats mâles de souche OFA [1], the ED50 worked out at 0.33 mg/kg.

Regarding `CSc1nc2ccc(-n3ccnc3)cc2[nH]1` [Exemple 128, (Imidazolyl-1)-5 (méthylthio)-2 benzimidazole], the ED50 in the test with rats mâles de souche OFA [1] was 4.5 mg/kg; in the test with rats mâles de souche OFA [2], 18.3 mg/kg.

Consider `C#CCSc1nc2ccc(-n3ccnc3)cc2[nH]1` [Exemple 130, (Imidazolyl-1)-5 (propargylthio)-2 benzimidazole], for which the ED50 with rats mâles de souche OFA [1] came to 0.48 mg/kg; with rats mâles de souche OFA [2], 9.24 mg/kg.

In the case of `Cn1c(=S)[nH]c2ccc(-n3ccnc3)cc21` [Exemple 124, (imidazolyl-1)-5 méthyl-3 benzimidazole thione-2], the ED50 with rats mâles de souche OFA [1] is 4.5 mg/kg.
